From ChEMBL document CHEMBL1128596, “Thienylimidazo[2,1-b]thiazoles as inhibitors of mitochondrial NADH dehydrogenase” (J Med Chem, 1995)

Assays:
Bos taurus = organism: Bos taurus; assay: Residual NADH:UBQ:DCIP reductase activity in beef mitochondrial particles; parameters: concentration or dose not given beside the values
Parascaris equorum = assay: Residual NADH:UBQ:DCIP reductase activity in parascaris mitochondrial particles; parameters: concentration or dose not given beside the values
[1] = Compound was tested for it's ability to inhibit NADH UBQ reductase activity in beef mitochondrial particles; parameters: species or system Bos taurus
[2] = Compound was tested for it's ability to inhibit NADH UBQ reductase activity in parascaris mitochondrial particles

Cn1c(Cl)c(/C=C/c2cccs2)[n+]2c1SCC2
residual activity (Bos taurus): 91%
residual activity (Parascaris equorum): 88%

c1cc(-c2cn3ccsc3n2)cs1
residual activity (Bos taurus): 68%
residual activity (Parascaris equorum): 83%

C=C(C)[C@H]1Cc2c(ccc3c2O[C@@H]2COc4cc(OC)c(OC)cc4[C@@H]2C3=O)O1
residual activity (Bos taurus): 34%
residual activity (Parascaris equorum): 65%

Cn1c(-c2ccccc2)c(/C=C/c2cccs2)[n+]2ccsc12
residual activity (Bos taurus): 81%
residual activity (Parascaris equorum): 94%

Cc1csc2nc(-c3ccsc3)cn12
IC50 [1]: 210 µM
residual activity (Bos taurus): 43%
residual activity (Parascaris equorum): 75%

Cc1csc2nc(-c3cccs3)cn12
IC50 [1]: 90 µM
residual activity (Bos taurus): 38%
IC50 [2]: 380 µM
residual activity (Parascaris equorum): 70%

Clc1cn2cc(-c3cccs3)nc2s1
residual activity (Bos taurus): 40%
residual activity (Parascaris equorum): 75%

c1csc(-c2cn3c(n2)SCC3)c1
residual activity (Bos taurus): 68%
residual activity (Parascaris equorum): 88%

c1csc(-c2cn3ccsc3n2)c1
residual activity (Bos taurus): 57%
residual activity (Parascaris equorum): 79%

Cc1cn2cc(-c3ccsc3)nc2s1
IC50 [1]: 140 µM
residual activity (Bos taurus): 40%
residual activity (Parascaris equorum): 73%

Cn1c(-c2ccccc2)c(/C=C/c2cccs2)[n+]2c1SCC2
residual activity (Bos taurus): 77%
residual activity (Parascaris equorum): 92%

Cn1c(Cl)c(/C=C\c2cccs2)[n+]2c1SCC2
residual activity (Bos taurus): 85%
residual activity (Parascaris equorum): 92%

Cc1cn2cc(-c3cccs3)nc2s1
IC50 [1]: 70 µM
residual activity (Bos taurus): 28%
IC50 [2]: 220 µM
residual activity (Parascaris equorum): 59%
